Structures can show the parent of a compound that is named as a salt.

Chain of human SPR (P35270 whole entry): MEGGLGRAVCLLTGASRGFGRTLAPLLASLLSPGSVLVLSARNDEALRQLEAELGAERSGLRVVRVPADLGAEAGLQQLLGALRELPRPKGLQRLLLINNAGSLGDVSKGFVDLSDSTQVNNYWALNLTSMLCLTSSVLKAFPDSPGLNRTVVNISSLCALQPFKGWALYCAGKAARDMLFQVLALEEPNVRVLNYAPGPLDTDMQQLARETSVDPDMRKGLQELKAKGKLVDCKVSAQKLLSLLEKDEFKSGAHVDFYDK

The first assay has as its target human SPR (Homo sapiens (Human), UniProt P35270). Briefly: Evaluation Example 2: Measurement of human SPR inhibitory activity (seven concentrations, sepiapterin absorbance at 420 nm). Type of assay: biochemical. The following applies: Evaluation Example 2, seven concentrations 0.14 nM to 100 nM, 240 minutes at room temperature, read-out: IC50. Put shortly: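 His-tagged full-length human SPR (1-261) was expressed in E. coli and the tag removed. Enzyme at 150 ng/mL in 100 mM Tris-HCl pH 7.5/0.01% BSA was mixed with compound (0.14–100 nM, seven points), 120 μM sepiapterin and 160 μM NADPH, both as added-solution concentrations. After 240 min at room temperature, remaining sepiapterin was read at 420 nm to give percent inhibition.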
Consider `CC(C)(C)Cn1c(=O)c(C(=O)NC2CC2)c(O)n2nc(Nc3cnc(C(C)(F)F)cn3)cc12` [Synthesis Example 344, N-Cyclopropyl-2-((5-(1,1-difluoroethyl)pyrazin-2-yl)amino)-7-hydroxy-4-neopentyl-5-oxo-4,5-dihydropyrazolo[1,5-a]pyrimidine-6-carboxamide], for which the IC50 turned out to be 1690 pM.

With `CCc1c(N)nn2c(O)c(C(=O)NC3CC3)c(=O)n(CC(C)(C)C)c12` [Synthesis Example 436, 2-Amino-N-cyclopropyl-3-ethyl-7-hydroxy-4-neopentyl-5-oxo-4,5-dihydropyrazolo[1,5-a]pyrimidine-6-carboxamide hydrochloride], the IC50 is 1200 pM.

With `Cc1cc2n(CC(C)(C)C)c(=O)c(C(=O)NC3CC3)c(O)n2n1` [Synthesis Example 320, N-Cyclopropyl-7-hydroxy-2-methyl-4-neopentyl-5-oxo-4,5-dihydropyrazolo[1,5-a]pyrimidine-6-carboxamide], the IC50 is 1690 pM. For `CC(C)Cn1c(=O)c(C(=O)NC2CC2)c(O)n2ncc(CCc3cccnc3)c12` [Synthesis Example 250, N-Cyclopropyl-7-hydroxy-4-isobutyl-5-oxo-3-(2-(pyridin-3-yl)ethyl)-4,5-dihydropyrazolo[1,5-a]pyrimidine-6-carboxamide], the IC50 was determined as 880 pM. For the compound `CN(CC#N)C(=O)c1cnc(Nc2cc3n(CC(C)(C)C)c(=O)c(C(=O)NC4CC4)c(O)n3n2)cn1` [Synthesis Example 358, 2-((5-((Cyanomethyl)(methyl)carbamoyl)pyrazin-2-yl)amino)-N-cyclopropyl-7-hydroxy-4-neopentyl-5-oxo-4,5-dihydropyrazolo[1,5-a]pyrimidine-6-carboxamide], the IC50 was determined as 870 pM.

As for `CC(C)Cn1c(=O)c(C(=O)NC2CC2)c(O)n2ncc(/C=C/C(=O)N3[C@H](C)COC[C@H]3C)c12` [compound 556, N-Cyclopropyl-3-((E)-3-((3R,5R)-3,5-dimethylmorpholino)-3-oxoprop-1-en-1-yl)-7-hydroxy-4-isobutyl-5-oxo-4,5-dihydropyrazolo[1,5-a]pyrimidine-6-carboxamide], the IC50 was 620 pM.

Regarding `CC(C)Cn1c(=O)c(C(=O)NC2CC2)c(O)n2nc(N)c(/C=C/C(=O)N3[C@@H](C)COC[C@@H]3C)c12` [Synthesis Example 422, 2-Amino-N-cyclopropyl-3-((E)-3-((3S,5S)-3,5-dimethylmorpholino)-3-oxoprop-1-en-1-yl)-7-hydroxy-4-isobutyl-5-oxo-4,5-dihydropyrazolo[1,5-a]pyrimidine-6-carboxamide], the IC50 turned out to be 750 pM. The same measure, in the same setting: as for `C/C=C/c1c(N)nn2c(O)c(C(=O)NC3CC3)c(=O)n(CC(C)(C)C)c12` [Synthesis Example 438, (E)-2-Amino-N-cyclopropyl-7-hydroxy-4-neopentyl-5-oxo-3-(prop-1-en-1-yl)-4,5-dihydropyrazolo[1,5-a]pyrimidine-6-carboxamide hydrochloride], the figure is 980 pM; as for `Cc1nn2c(O)c(C(=O)NC3CC3)c(=O)n(CC(C)C)c2c1/C=C/C(=O)N1[C@@H](C)COC[C@@H]1C` [compound 567, N-Cyclopropyl-3-((E)-3-((3S,5S)-3,5-dimethylmorpholino)-3-oxoprop-1-en-1-yl)-7-hydroxy-4-isobutyl-2-methyl-5-oxo-4,5-dihydropyrazolo[1,5-a]pyrimidine-6-carboxamide], 690 pM. For the compound `CC(C)Cn1c(=O)c(C(=O)NC2CC2)c(O)n2ncc(/C=C/C(=O)N3CCN(C(C)C)CC3)c12` [compound 462, (E)-N-Cyclopropyl-7-hydroxy-4-isobutyl-3-(3-(4-isopropylpiperazin-1-yl)-3-oxoprop-1-en-1-yl)-5-oxo-4,5-dihydropyrazolo[1,5-a]pyrimidine-6-carboxamide], the IC50 came to 960 pM. For `Cc1nn2c(O)c(C(=O)NC3CC3)c(=O)n(CC(C)C)c2c1/C=C/C(=O)N1CC2CCC(C1)C2(F)F` [Synthesis Example 651, (E)-N-Cyclopropyl-3-(3-(8,8-difluoro-3-azabicyclo[3.2.1]octan-3-yl)-3-oxoprop-1-en-1-yl)-7-hydroxy-4-isobutyl-2-methyl-5-oxo-4,5-dihydropyrazolo[1,5-a]pyrimidine-6-carboxamide], the IC50 worked out at 1190 pM.

`CC(C)(C)Cn1c(=O)c(C(=O)NC2CC2)c(O)n2nc3c(c12)CCN3` [Synthesis Example 396, N-Cyclopropyl-7-hydroxy-4-neopentyl-5-oxo-2,3,4,5-tetrahydro-1H-pyrrolo[2′,3′:3,4]pyrazolo[1,5-a]pyrimidine-6-carboxamide]: the IC50 turned out to be 1350 pM. For `CC(C)Cn1c(=O)c(C(=O)NC2CC2)c(O)n2ncc(/C=C/C(=O)N3CCC(C(F)(F)F)CC3)c12` [compound 480, (E)-N-Cyclopropyl-7-hydroxy-4-isobutyl-5-oxo-3-(3-oxo-3-(4-(trifluoromethyl)piperidine-1-yl)prop-1-en-1-yl)-4,5-dihydropyrazolo[1,5-a]pyrimidine-6-carboxamide], the IC50 worked out at 1120 pM. For `Cc1nn2c(O)c(C(=O)NC3CC3)c(=O)n(CC(C)C)c2c1/C=C/C(=O)N(C)Cc1cccnc1` [Synthesis Example 637, (E)-N-Cyclopropyl-7-hydroxy-4-isobutyl-2-methyl-3-(3-(methyl(pyridin-3-ylmethyl)amino)-3-oxoprop-1-en-1-yl)-5-oxo-4,5-dihydropyrazolo[1,5-a]pyrimidine-6-carboxamide], the IC50 was determined as 890 pM. As to `CC(C)Cn1c(=O)c(C(=O)NC2CC2)c(O)n2ncc(/C=C/C(=O)N(C)CC3CCOCC3)c12` [compound 499, (E)-N-Cyclopropyl-7-hydroxy-4-isobutyl-3-(3-(methyl((tetrahydro-2H-pyran-4-yl)methyl)amino)-3-oxoprop-1-en-1-yl)-5-oxo-4,5-dihydropyrazolo[1,5-a]pyrimidine-6-carboxamide], the IC50 was 740 pM.

On to `Cc1nn2c(O)c(C(=O)NC3CC3)c(=O)n(CC(C)C)c2c1/C=C/C(=O)N1CCO[C@H](C)C1` [Synthesis Example 679, (R,E)-N-Cyclopropyl-7-hydroxy-4-isobutyl-2-methyl-3-(3-(2-methylmorpholino)-3-oxoprop-1-en-1-yl)-5-oxo-4,5-dihydropyrazolo[1,5-a]pyrimidine-6-carboxamide], for which the IC50 is 940 pM. For the compound `CC(C)(C)Cn1c(=O)c(C(=O)NC2CC2)c(O)n2nc(Nc3cnc(C(=O)N4CCC(F)(F)CC4)cn3)cc12` [Synthesis Example 355, N-Cyclopropyl-2-((5-(4,4-difluoropiperidine-1-carbonyl)pyrazin-2-yl)amino)-7-hydroxy-4-neopentyl-5-oxo-4,5-dihydropyrazolo[1,5-a]pyrimidine-6-carboxamide], the IC50 is 1100 pM. On the same count and under the same terms, as for `Cc1nn2c(O)c(C(=O)NC3CC3)c(=O)n(CC(C)C)c2c1/C=C/C(=O)N(C)C1CC1` [compound 572, (E)-N-Cyclopropyl-3-(3-(cyclopropyl(methyl)amino)-3-oxoprop-1-en-1-yl)-7-hydroxy-4-isobutyl-2-methyl-5-oxo-4,5-dihydropyrazolo[1,5-a]pyrimidine-6-carboxamide], the figure is 1100 pM. Turning to `Nc1nn2c(O)c(C(=O)NC3CC3)c(=O)n(CC3CCOCC3)c2c1/C=C/C1CCOCC1` [Synthesis Example 443, (E)-2-Amino-N-cyclopropyl-7-hydroxy-5-oxo-4-((tetrahydro-2H-pyran-4-yl)methyl)-3-(2-(tetrahydro-2H-pyran-4-yl)vinyl)-4,5-dihydropyrazolo[1,5-a]pyrimidine-6-carboxamide hydrochloride], the IC50 was found to be 650 pM. `CC(C)Cn1c(=O)c(C(=O)NC2CC2)c(O)n2ncc(/C=C/C(=O)N3CCCC3C3CC3)c12` (racemic) [compound 593, (E)-N-Cyclopropyl-3-(3-(2-cyclopropylpyrrolidin-1-yl)-3-oxoprop-1-en-1-yl)-7-hydroxy-4-isobutyl-5-oxo-4,5-dihydropyrazolo[1,5-a]pyrimidine-6-carboxamide (racemate)]: the IC50 turned out to be 1480 pM.

The assay is the same for the next values; noted with them: sepiapterin absorbance, Table 41, read-out: concentration at 50% inhibition of human SPR (IC50).
On to `Cc1nn2c(O)c(C(=O)NC3CC3)c(=O)n(CC(C)C)c2c1/C=C/C(=O)N1CC[C@@H](C(C)(C)O)C1` [Synthesis Example 700, (R,E)-N-Cyclopropyl-7-hydroxy-3-(3-(3-(2-hydroxypropan-2-yl)pyrrolidin-1-yl)-3-oxoprop-1-en-1-yl)-4-isobutyl-2-methyl-5-oxo-4,5-dihydropyrazolo[1,5-a]pyrimidine-6-carboxamide], for which the IC50 came out at 960 pM.

For `CC(C)Cn1c(=O)c(C(=O)NC2CC2)c(O)n2ncc(/C=C/C(=O)N3C[C@@H](F)[C@H](F)C3)c12` (racemic) [Synthesis Example 723, N-Cyclopropyl-3-((E)-3-(trans-3,4-difluoropyrrolidin-1-yl)-3-oxoprop-1-en-1-yl)-7-hydroxy-4-isobutyl-5-oxo-4,5-dihydropyrazolo[1,5-a]pyrimidine-6-carboxamide (racemate)], the IC50 came to 690 pM. Regarding `Cc1nn2c(O)c(C(=O)NC3CC3)c(=O)n(CC(C)C)c2c1/C=C/C(=O)N1CCc2cncnc21` [Synthesis Example 752, (E)-N-Cyclopropyl-3-(3-(5,6-dihydro-7H-pyrrolo[2,3-d]pyrimidin-7-yl)-3-oxoprop-1-en-1-yl)-7-hydroxy-4-isobutyl-2-methyl-5-oxo-4,5-dihydropyrazolo[1,5-a]pyrimidine-6-carboxamide], the IC50 was 880 pM. With `Cc1nn2c(O)c(C(=O)NC3CC3)c(=O)n(CC(C)C)c2c1/C=C/C(=O)N1CCN(C)C[C@H]1C` [Synthesis Example 702, (R,E)-N-Cyclopropyl-3-(3-(2,4-dimethylpiperazin-1-yl)-3-oxoprop-1-en-1-yl)-7-hydroxy-4-isobutyl-2-methyl-5-oxo-4,5-dihydropyrazolo[1,5-a]pyrimidine-6-carboxamide], the IC50 is 870 pM.

Values taken from patent publication US20240092784A1, “CONDENSED HETEROCYCLIC COMPOUND” (NISSAN CHEMICAL CORPORATION, priority 2020, published 2024).
